The results in this text go back to patent publication US5506239A, “Carbostyril derivative and platelets aggregation inhibitory agent” (Otsuka Pharmaceutical Co., Ltd., priority 1991, dated 1996).

Series [1] concerns platelets. Put plainly: Platelets aggregation inhibitory activity (method of Born et al.), collagen-induced, human PRP (Pharmacological Test I). In kind it is cell-based, man. Conditions: Homo sapiens, Platelet, 20 μg/ml collagen, 37° C., read-out: IC50 Collagen (50% platelets aggregation inhibition). On the procedure: (§1) The platelets aggregation inhibitory activity of each test compound was measured by the method of Born et al. [J. Physiol., London, 162, 67 (1962)], using Platelets Aggregation Tracer manufactured by Nikoh Bioscience Co., Ltd.
(§2) 9 volumes of a blood collected from person was mixed with 1 volume of a 3.8% aqueous sodium citrate solution. Part of the mixture was subjected to centrifugation at 1,100 rpm for 10 minutes to obtain a platelet rich plasma (PRP). The remainder of the mixture was also subjected to centrifugation at 3,000 rpm for 10 minutes to obtain a platelet poor plasma (PPP).
(§3) The number of platelets in the PRP was measured using Coulter Counter manufactured by Coulter Electronics Inc. Then, the PRP was diluted with the PPP so that the number of platelets in the dilution became 300,000, whereby a PRP solution was prepared.
(§4) 200 μl of this PRP solution and 2 ml of a solution containing a test compound at a given concentration were placed in an aggregation measurement cell and heated at 37° C. for 1 minute. Thereto was added 20 μl of adenosine diphosphate (ADP manufactured by Sigma Co.) or a collagen suspension (Collagen Reagent manufactured by Horm, Hormon-Chemie, Gmbh) to induce aggregation of platelets. The resulting mixture in the cell was measured for change of transmittance, after which a platelets aggregation curve was prepared. Incidentaly, the concentration of ADP or collagen was selected so that the final Concentration became 7.5 μM or 20 μg/ml.
(§5) Using the platelets aggregation curve, there was calculated a maximum aggregation rate (MAR) of platelets using the followoing formula: […]
(§6) wherein a represents a transmittance of the PRP obtained in the same manner; c represents a transmittance of the PPP obtained in the same manner; and b represents a transmittance at the maximum change, of the PRP solution containng the test compound and the aggregation inducer.
(§7) A MAR was also calculated as above, for the control containing no test compound.
(§8) Using the above two MARs, there were calculated platelets aggregation inhibitions (%) of each test compound at various concentrations using the following formula.
(§9) Inhibition=[1-(MAR of PRP solution containing test compound)/(MAR of PRP
(§10) solution containing no test compound)]×100
(§11) Using the above obtained platelets aggregation inhibitions (%) of each test compound at various concentrations, there was calculated a concentration (IC50) of each test compound for 50% platelets aggregation inhibition.

For a further series, the system named is mongrel dogs. Conditions: dog, in vivo, 300 mg/kg. As for the experimental part: The heart rate-increasing activity and blood pressure hypotensive activity of each test compound were measured by the following method, using mongrel dogs each weighing 10-20 kg. That is, said dogs were anesthesized by intravenous injection of pentobarbital sodium, then fixed at the back, and tested under artificial respiration. The blood pressures of the dogs were measured by a blood pressure measuring transducer (P23×L manufactured by Gould Statham Instruments, Inc.) via cannula inserted into the femoral artery. The heart rates of the dogs were measured using the pulse wave of the blood pressure of each dog, via a tachometer. The signals of these testng apparatuses were recorded on a thermal pen-type recorder (Recti-Horize 8K manufactured by Nippon Denki-San-ei Sha).
Some of the compounds obtained in the above Examples were used as test compounds. […] Then, the heart rate of each dog was measured according to the above method and a maximum change in heart rate was calculated.

Series [2] deals with platelets. Put plainly: Inhibition of collagen-induced platelets adhesion, washed platelets (Pharmacological Test III). Conditions: Platelet, 50 μg/ml collagen, human washed platelets, read-out: Inhibition (%) of collagen-induced platelets adherence. The series is classed as cell-based, man. As for the experimental part: A blood was collected from a healthy person with normal platelets function by addition of 0.1% disodium ethylenediaminetetraacetate (EDTA.4Na) and immediately subjected to separation of a platelet rich plasma (PRP). The PRP was washed twice with a Tyrode's buffer solution (50mM TRIS, 0.1% EDTA, Ca (-), Mg (-), 0.14% BSA added, pH=7.4), and suspended in the buffer solution so that the number of platelets in the resulting suspension became 300, 000/ml, to obtain a platelets suspension (EDTA-WP). 4 mg of Type I manufactured by Sigma Co., derived from a bovine skin was dissolved in 0.25 ml of acetic acid (83.5 mM); 8 ml of distilled water was added thereto; an ultrasonic wave was applied to the mixture at 4° C. for 2 minutes; 5 ml of the supernatant liquid was separated as a collagen solution. Each test compound was dissolved in dimethylformamide (DMF) so as to give a concentration of at least […] when possible, to prepare a test compound solution. The change in turbidity of platelets suspension was recorded as a change in transmitted light emitted from a glass cell containing the suspension, using a platelets aggregation tracer manufactured by Nikoh Bioscience K.K., generally used in the test of platelets aggregation function, whereby the adherence of platelets was measured. Incidentally, in recoridng the change in transmitted light, the sensitivity of the recorder was 5 times as high as that used generally. 200 μl of the EDTA-WP was placed in a glass cell exclusively used for the above platelets aggregation tester. Further, 1 μl of the test compound solution was added. The mixture was incubated at room temperature for 5 minutes. Then, the cell was set in the platelets aggregation tracer and was allowed to stand for 1 minute until the temperature became 37° C. Thereafter, about 20 μl (50 μg/ml) of the collagen solution was added, and the adherence of platelets were measured.
The inhibitions (%) of collagen-induced platelets adhesion by each test compound at various concentrations were calculated using the following formula.
Inhibition (%)=[1-(platelets adherence when test compound added)/
(platelets adherence when no test compound added)]×100

Series [3] has as its system platelets. Briefly: Platelets aggregation inhibitory activity (method of Born et al.), ADP-induced, human PRP (Pharmacological Test I). In kind it is cell-based, man. Conditions: 7.5 μM ADP, 37° C., read-out: IC50 ADP (50% platelets aggregation inhibition). On the procedure:
as §1, §2, §3, §4, §5, §6, §7, §8, §9, §10, §11

In series [4] the target is T1, cyclic AMP phosphodiesterase (Homo sapiens, UniProt Q14432).
T1 construct: the resulting supernatant liquid was used as a crude enzyme solution; from tissue; host or cells: human platelets (from platelet-rich plasma)
Briefly: Cyclic AMP phosphodiesterase inhibitory activity, enzyme from human platelets (Pharmacological Test IV). Conditions: 0.4 μM cyclic AMP substrate, 30° C., 20 minutes, human platelet enzyme; read-out: IC50 (50% phosphodiesterase inhibition concentration). The series is classed as biochemical, man.

T1 sequence (Q14432 whole entry): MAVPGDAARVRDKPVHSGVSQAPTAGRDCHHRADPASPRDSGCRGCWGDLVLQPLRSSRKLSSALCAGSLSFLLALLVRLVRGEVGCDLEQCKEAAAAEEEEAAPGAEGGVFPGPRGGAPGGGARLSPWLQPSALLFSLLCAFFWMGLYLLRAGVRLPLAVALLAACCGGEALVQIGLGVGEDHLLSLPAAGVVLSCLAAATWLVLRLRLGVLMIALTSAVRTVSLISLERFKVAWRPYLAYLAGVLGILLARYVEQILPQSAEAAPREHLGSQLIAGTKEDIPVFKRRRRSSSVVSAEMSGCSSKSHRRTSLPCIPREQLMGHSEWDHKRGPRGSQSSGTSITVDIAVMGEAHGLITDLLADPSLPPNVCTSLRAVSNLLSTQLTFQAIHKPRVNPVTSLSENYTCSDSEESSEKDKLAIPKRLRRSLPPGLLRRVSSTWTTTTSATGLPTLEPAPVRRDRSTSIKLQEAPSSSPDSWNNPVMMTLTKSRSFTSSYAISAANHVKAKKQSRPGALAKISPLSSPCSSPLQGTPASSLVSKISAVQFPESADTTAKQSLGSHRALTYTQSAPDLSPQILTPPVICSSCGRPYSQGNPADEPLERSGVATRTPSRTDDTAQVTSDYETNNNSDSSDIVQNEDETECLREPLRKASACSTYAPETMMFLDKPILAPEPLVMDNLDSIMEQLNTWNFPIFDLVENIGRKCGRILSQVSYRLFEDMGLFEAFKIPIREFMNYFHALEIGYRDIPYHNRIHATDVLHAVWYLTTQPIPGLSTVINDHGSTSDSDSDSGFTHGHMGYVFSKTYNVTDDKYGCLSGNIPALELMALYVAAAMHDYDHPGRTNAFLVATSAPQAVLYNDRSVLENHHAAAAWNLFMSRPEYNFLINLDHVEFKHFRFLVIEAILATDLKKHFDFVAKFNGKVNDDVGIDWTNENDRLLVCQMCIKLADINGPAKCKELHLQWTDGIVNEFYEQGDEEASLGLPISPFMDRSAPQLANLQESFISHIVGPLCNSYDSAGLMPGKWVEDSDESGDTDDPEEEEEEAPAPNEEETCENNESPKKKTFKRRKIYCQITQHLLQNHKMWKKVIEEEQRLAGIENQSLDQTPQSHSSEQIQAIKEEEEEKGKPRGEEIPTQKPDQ

By inhibition is commonly meant the percentage by which the read-out fell short of the control. As to `O=c1ccc2cc(OCCCCN(CCN3CCC(O)CC3)c3ccccc3)ccc2[nH]1` [Example 27], the IC50 in the series on platelets [1] came out at 7.7 µM; in the series with platelets [3] (Homo sapiens, Platelet) it was 6.7 µM. Moreover, the “Maximum change in heart rate” value in the series on mongrel dogs turned out to be 7 beats/minute. In the series on platelets [2], the inhibition at 30 µM amounted to 40%.
As for `O=c1ccc2cc(OCCCCN(CCN3CCC(O)CC3)Cc3ccccc3)ccc2[nH]1` [Example 28], the IC50 in series [4] amounted to 0.48 µM. Besides, the “Maximum change in heart rate” value in the series on mongrel dogs is 0 beats/minute. For the same compound, the inhibition at 10 µM in the series with platelets [2] is 48%.
On to `CC(=O)NCCN(CCCCOc1ccc2[nH]c(=O)ccc2c1)CC1CCCCCCC1` [Example 61], for which the IC50 is 6.3 µM in the series with platelets [1] and 4.9 µM with platelets [3] (Homo sapiens, Platelet). Besides, the “Maximum change in heart rate” value with mongrel dogs is 17 beats/minute. In the series with platelets [2], the inhibition at 30 µM came to 35%.
Consider `CCN(CC)CCN(CCCCOc1ccc2[nH]c(=O)ccc2c1)CC1CCCCCC1` [Example 62], for which the IC50 stood at 17 µM in the series on platelets [1] and 18 µM in the series with platelets [3] (Homo sapiens, Platelet). Further, in the series on mongrel dogs, the “Maximum change in heart rate” value was determined as 2 beats/minute. Further, the inhibition at 100 µM in the series with platelets [2] (dose 100 μM) came out at 54%.
In the case of `O=c1ccc2cc(OCCCCCN(Cc3ccccc3)Cc3ccccn3)ccc2[nH]1` [Example 70], the IC50 in the series on platelets [1] was 22 µM; in series [4], below 0.1 µM; in the series with platelets [3] (Homo sapiens, Platelet), 40 µM.
Taken in the same sequence, the figures for `O=c1ccc2cc(OCCCCS(=O)(=O)N(CCN3CCC(O)CC3)CC3CCCCCCC3)ccc2[nH]1` [Example 79] were 2.5 µM, below 0.1 µM and 1.3 µM.
`O=c1ccc2cc(OCCCS(=O)(=O)N(CCN3CCC(O)CC3)C3CCCCCCC3)ccc2[nH]1` [Example 85]: the IC50 with platelets [1] is 0.57 µM; in series [4] it was below 0.1 µM; with platelets [3] (Homo sapiens, Platelet) it was 2.1 µM. The “Maximum change in heart rate” value with mongrel dogs was found to be 13 beats/minute. In addition, the inhibition at 3 µM in the series with platelets [2] (dose 3 μM) came to 50%.
Consider `O=c1ccc2cc(OCCCCS(=O)(=O)N(CCN3CCC(O)CC3)Cc3ccccc3)ccc2[nH]1` [Example 89], for which the IC50 with platelets [1] is 3.8 µM; in series [4], below 0.1 µM; with platelets [3] (Homo sapiens, Platelet), 7.7 µM.
Taken in the same sequence, the figures for `O=c1ccc2cc(OCCCCS(=O)(=O)N(CCN3CCC(O)CC3)Cc3ccccc3Cl)ccc2[nH]1` [Example 93] were 2.6 µM, below 0.1 µM and 1.2 µM.
`O=c1ccc2cc(OCCCS(=O)(=O)N(CC(O)CO)CC3CCCCC3)ccc2[nH]1` (stereo not shown) [Example 109]: the IC50 in the series on platelets [1] turned out to be 6.3 µM; in the series on platelets [3] (Homo sapiens, Platelet), 4.9 µM. Moreover, in the series with mongrel dogs, the “Maximum change in heart rate” value was found to be 16 beats/minute.
In the case of `O=c1ccc2ccc(OCCCCN(CCN3CCC(O)CC3)CC3CCCCCCC3)cc2[nH]1` [Example 134], the IC50 in series [4] was determined as 0.49 µM. Further, in the series with platelets [2], the inhibition at 10 µM worked out at 45%.
Turning to `CN(C(=S)CCCOc1ccc2[nH]c(=O)ccc2c1)C1CCCCC1` [Example 143], the results for the IC50 (in the series on platelets [1]; in series [4]; in the series on platelets [3]) were 2.3 µM, 1.44 µM and 3.8 µM, respectively.
